Measurements as given in patent US9164109B2, “Use of probes for unbound metabolites” (priority 2006, dated 2015).

Molecular target: T1, HSA (Homo sapiens, UniProt P02768)
T1 construct: from tissue; host or cells: blood plasma of healthy adult donors, diluted to 1%
Assay: Equilibrium-binding model of UCB and HSA
Settings: value used to calculate model [UCBf], [HSA]=6.5 μM, FIG. 2
Experimental: Investigations of the effects of FFA on our UCB probes are necessary because the probes are constructed from FABP mutants and FFA are abundant in plasma. Interference testing of every possible component of plasma, however, is not feasible. Therefore UCBf was measured in samples of diluted plasma, from 6 healthy adult donors, titrated with UCB. Because the [UCBf] is determined by the UCB:HSA ratio, the [HSA] of each plasma sample was measured using a Bromcresol Green Albumin Determination Kit from Sigma-Aldrich. HSA concentrations were similar for all samples and ranged from 620 to 680 μM. Plasma [FFAu] was measured with ADIFAB2 and ranged from 1.0 to 3.6 nM. The L24P19C7 probe at 0.5 μM was used to measure [UCBf] in 1% plasma (i.e., 6.2 to 6.8 μM HSA) titrated with UCB (FIG. 2). This probe has the following mutations with reference to rat Intestinal Fatty Acid Binding Protein (SEQ ID NO: 4): Y14R M18L L38V V60R A72L A73F R106C Q115R and Y117D. Without the addition of UCB, all samples yielded a [UCBf] of nearly zero, in good agreement with the 0 to 1 nM [UCBf] expected for a healthy adult. […] Indeed, the increase was consistent with the change in [UCBf] predicted using the equilibrium-binding model, confirming the accuracy of the probe in plasma.

T1 sequence (P02768 25-609): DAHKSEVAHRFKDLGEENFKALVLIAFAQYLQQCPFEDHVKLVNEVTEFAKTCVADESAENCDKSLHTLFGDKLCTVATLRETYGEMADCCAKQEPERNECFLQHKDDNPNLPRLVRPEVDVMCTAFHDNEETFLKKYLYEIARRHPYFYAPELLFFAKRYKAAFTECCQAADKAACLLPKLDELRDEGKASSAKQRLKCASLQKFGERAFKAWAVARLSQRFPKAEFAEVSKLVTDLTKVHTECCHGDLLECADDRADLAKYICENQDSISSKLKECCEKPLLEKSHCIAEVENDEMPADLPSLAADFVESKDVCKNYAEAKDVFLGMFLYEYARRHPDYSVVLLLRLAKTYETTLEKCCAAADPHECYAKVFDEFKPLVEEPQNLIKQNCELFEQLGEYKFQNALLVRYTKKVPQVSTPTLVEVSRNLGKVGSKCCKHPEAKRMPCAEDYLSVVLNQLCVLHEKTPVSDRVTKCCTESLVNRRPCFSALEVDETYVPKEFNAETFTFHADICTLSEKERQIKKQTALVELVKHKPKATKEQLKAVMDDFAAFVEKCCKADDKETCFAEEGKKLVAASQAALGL

## C=CC1=C(C)/C(=C/c2[nH]c(Cc3[nH]c(/C=C4\NC(=O)C(C)=C4C=C)c(C)c3CCC(=O)O)c(CCC(=O)O)c2C)NC1=O [UCB, unconjugated bilirubin]
  Kd: 0.019 µM
